Measured values reported in patent US20080139628A1 (ARENA PHARMACEUTICALS, INC., priority 2004, published 2008).

How the values were obtained:
free fatty acid release = test: NEFA competition: free fatty acids in blood of mice (NEFA-C assay kit); assay type: in vivo; conditions: for concentration of free fatty acid: blood after 10 minutes (vehicle sample 0.9 mM)
Description: After 10 minutes the mice were euthanized and blood was collected. The blood samples were processed and tested for free fatty acid release using the non-esterified fatty-acid (NEFA) assay (the NEFA-C assay kit from Waco Chemicals USA, Richmond, Va.).

[1] = test system: niacin-induced flushing in mice; test: Block of niacin-induced flushing in mice, Laser Dopler; assay type: in vivo; conditions: for change from baseline (flush) at 3 minutes / change above baseline (flush) at 15 minutes: mice given compound about 10 minutes before niacin; for change from baseline (flush) at 3 minutes: 3 minutes after niacin; for change above baseline (flush) at 15 minutes: at/within 15 minutes after niacin
Description: Flushing was measured using a Laser Dopler.
In these experiments, the control group contained anesthetized mice that were administered niacin alone and flushing above baseline was measured over time. […]

mice = test: Flush in response to PGD2 in mice treated with niacin receptor partial agonist; assay type: in vivo; conditions: mice pretreated with Compound 1 and niacin
Description: After re-establishment of baseline, PGD2 was administered and flushing was recorded. […] Baseline was then re-established at 20% above baseline and PGD2 was administered.

[2] = test system: dysmenorrhea or painful menstruation; conditions: 80 women, 100 mg niacin twice daily, then every 2 to 3 hours during heavy cramps; cited from earlier work

For C1Cc2[nH]nc(-c3nnn[nH]3)c2C1 [Compound 1, 3-(1H-Tetrazol-5-yl)-1,4,5,6-tetrahydro-cyclopentapyrazole], the “interference with the reduction in free fatty acids induced by niacin” value (free fatty acid release; Compound 1 plus niacin) was “does not interfere”, the “concentration of free fatty acid” value (free fatty acid release; Compound 1 plus niacin) was 0.38 mM and the “change from baseline (flush) at 3 minutes” value (shortened to “change from baseline (flush)”) [1] was 10%. For the same molecule, the “change above baseline (flush) at 15 minutes” value (from here on “change above baseline (flush)”) [1] was “about 20%” and the “flushing induced by niacin” value ([1]; mice, partial agonist given prior to niacin) was “significantly reduced”.

In the case of O=C(O)c1cc(Cc2cccc(F)c2)[nH]n1 [Compound 2, 5-(3-Fluoro-benzyl)-1H-pyrazole-3-carboxylic acid], the “change from baseline (flush)” value [1] is reported as 0% and the “change above baseline (flush)” value [1] is reported as “about 15%”.

With O=C(O)c1cc(Cc2cccc(Cl)c2)[nH]n1 [Compound 3, 5-(3-Chloro-benzyl)-1H-pyrazole-3-carboxylic acid] the “change from baseline (flush)” value [1] was “about 18%” and the “change above baseline (flush)” value [1] was “about 13%”.

For O=C(O)c1cc(Cc2cccc(Br)c2)[nH]n1 [Compound 4, 5-(3-Bromo-benzyl)-1H-pyrazole-3-carboxylic acid], the “change from baseline (flush)” value [1] was 15% and the “change above baseline (flush)” value [1] was “about 30%”.

For CCCCC[C@H](O)/C=C/[C@H]1C(=O)C[C@H](O)[C@@H]1C/C=C\CCCC(=O)O [PGD2, prostaglandin D2], the “time of flush peak after PGD2 administration” value (mice) was “about 6 minutes”, the “time after PGD2 administration at which flushing began” value (mice; baseline re-established at 20% above baseline) was “about 1.5 minutes” and the “flush peak, % of the original baseline” value (mice; about 6 minutes after PGD2) was “about 70%”.

For O=C(O)c1cccnc1 [niacin, nicotinic acid, reference compound], the “concentration of free fatty acid” value (free fatty acid release; vehicle plus niacin) is given as 0.4 mM, the “subjects who experienced significant relief” value [2] is given as “About 90%” and the “time after which mice began to flush” value ([1]; anesthetized mice, niacin alone) is given as 1.5 min.
